Reference: patent US10723711B2, “1,1,1-trifluoro-3-hydroxypropan-2-yl carbamate derivatives and 1,1,1-trifluoro-4-hydroxybutan-2-yl carbamate derivatives as MAGL inhibitors” (PFIZER INC., priority 2015, dated 2020)
Read-outs that look alike come from different tables or passages of the source. Values belong to the compound of their own block, whether it stands above or below them.

How the values were obtained:
[1] = Prodrug in vivo pharmacokinetics in dogs after intravenous administration (LC-MS-MS of prodrug and parent); settings: Beagle dogs
[2] = biological target: T1, human recombinant Monoacylglycerol Lipase (Homo sapiens, UniProt Q99685); experiment: MAGL inhibition enzymatic assay, fluorogenic substrate 7-HCA, IC50 at T=0 min or after 30 minute incubation (T=30 min); type: biochemical; settings: geometric mean of 2-4 determinations unless otherwise indicated
T1 sequence (Q99685 1-303): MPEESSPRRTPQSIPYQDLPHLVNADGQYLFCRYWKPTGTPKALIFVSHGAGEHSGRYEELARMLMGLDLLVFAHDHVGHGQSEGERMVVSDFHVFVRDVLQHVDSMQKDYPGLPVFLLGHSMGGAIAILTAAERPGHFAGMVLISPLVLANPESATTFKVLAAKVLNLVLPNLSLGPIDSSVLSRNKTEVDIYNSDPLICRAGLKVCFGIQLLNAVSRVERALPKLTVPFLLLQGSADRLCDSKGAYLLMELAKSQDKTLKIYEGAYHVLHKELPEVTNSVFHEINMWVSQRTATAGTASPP
Procedure: An equal volume of 7-HCA in assay buffer with 10% DMSO was added either immediately (T=0 min) or after a 30 minute incubation (T=30 min) to initiate the reaction. […] After these dilutions, the final concentration of the test compound ranged from 3 μM to 0.03 nM. […] IC50 values were generated based on a four parameter fit model using ABASE software from IDBS.

[3] = biological target: T2, human recombinant FAAH (Homo sapiens, UniProt O00519); experiment: FAAH inhibition enzymatic assay, fluorescent substrate Arachidonoyl-AMC, 30 minute incubation; type: biochemical; settings: T = 30 min (30 minute incubation); geometric mean of 2-4 determinations unless otherwise indicated
T2 construct: purchased Cayman 10010183
T2 sequence (O00519 1-579): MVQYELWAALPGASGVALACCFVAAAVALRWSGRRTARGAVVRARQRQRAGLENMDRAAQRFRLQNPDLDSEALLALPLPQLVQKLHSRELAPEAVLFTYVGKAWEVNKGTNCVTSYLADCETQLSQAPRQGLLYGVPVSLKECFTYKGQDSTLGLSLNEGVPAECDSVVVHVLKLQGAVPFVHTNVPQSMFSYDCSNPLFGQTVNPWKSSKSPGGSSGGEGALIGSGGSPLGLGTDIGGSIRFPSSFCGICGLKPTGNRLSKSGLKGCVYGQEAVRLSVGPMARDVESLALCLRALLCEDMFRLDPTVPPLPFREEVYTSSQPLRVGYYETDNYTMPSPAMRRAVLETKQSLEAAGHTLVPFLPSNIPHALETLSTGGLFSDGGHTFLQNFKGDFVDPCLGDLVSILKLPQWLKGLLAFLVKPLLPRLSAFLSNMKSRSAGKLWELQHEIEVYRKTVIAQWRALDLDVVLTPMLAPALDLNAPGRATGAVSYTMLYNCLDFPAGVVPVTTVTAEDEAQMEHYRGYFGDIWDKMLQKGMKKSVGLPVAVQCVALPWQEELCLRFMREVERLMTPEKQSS

[4] = biological target: T1, human recombinant Monoacylglycerol Lipase; experiment: MAGL inactivation, enzyme progress curves, kinact/KI; type: biochemical; settings: from enzyme progress curves, T = 0 min protocol; geometric mean of 2-4 determinations unless otherwise indicated
Procedure, shortened: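 Human recombinant MAGL ([…]) with compound, 7-HCA substrate (final 5 μM) added immediately (T=0 min), in pH 7.4 HEPES buffer with 0.1% Triton X-100 and 25% glycerin. Fluorescence (Ex/Em 340/465) was read every minute over 60 min, giving progress curves at decreasing compound concentrations (final 3 μM to 0.03 nM).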

[5] = Prodrug in vivo pharmacokinetics in rats after intravenous administration (LC-MS-MS of prodrug and parent); settings: for Cmax: Wistar Hann, rat, iv
[6] = Example 6 (parent) in plasma, IV Example 32 at 1 mg/kg, Dog 03
[7] = Example 6 (parent) in plasma, IV Example 32 at 1 mg/kg, Dog 04
[8] = Example 6 (parent) in plasma, IV Example 32 at 1 mg/kg, Mean
[9] = T = 0 min (substrate added immediately), read-out: MAGL (T = 0 min) IC50
[10] = T = 30 min (30 minute incubation), read-out: MAGL (T = 30 min) IC50
[11] = Example 6 (parent) in plasma, Wistar Hann rats, IV Example 32 at 2 mg/kg, Mean
[12] = Example 6 (parent) in plasma, Wistar Hann rats, IV Example 32 at 2 mg/kg, Rat 03
[13] = Example 6 (parent) in plasma, Wistar Hann rats, IV Example 32 at 2 mg/kg, Rat 04
[14] = Example 9 (parent) in plasma, IV Example 31 at 0.7 mg/kg, Dog 01
[15] = Example 9 (parent) in plasma, IV Example 31 at 0.7 mg/kg, Dog 02
[16] = Example 9 (parent) in plasma, IV Example 31 at 0.7 mg/kg, Mean
[17] = Example 9 (parent) in plasma, Wistar Hann rats, IV Example 31 at 1.48 mg/kg, Mean
[18] = Example 9 (parent) in plasma, Wistar Hann rats, IV Example 31 at 1.48 mg/kg, Rat 01
[19] = Example 9 (parent) in plasma, Wistar Hann rats, IV Example 31 at 1.48 mg/kg, Rat 02
[20] = Example 32 in plasma, IV Example 32 at 1 mg/kg, Dog 03
[21] = Example 32 in plasma, IV Example 32 at 1 mg/kg, Dog 04
[22] = Example 32 in plasma, IV Example 32 at 1 mg/kg, Mean
[23] = Example 32 in plasma, rats, IV Example 32 (2 mg/kg active), Mean
[24] = Example 32 in plasma, rats, IV Example 32 (2 mg/kg active), Rat 03
[25] = Example 32 in plasma, rats, IV Example 32 (2 mg/kg active), Rat 04

AUC [1, 6]: 591 ng·h/mL | AUC Extrap [1, 6]: 595 ng·h/mL | Tmax [1, 6]: 4.98 min | T½ [1, 6]: 246 min | AUC [1, 7]: 705 ng·h/mL | AUC Extrap [1, 7]: 710 ng·h/mL | Tmax [1, 7]: 4.98 min | T½ [1, 7]: 322 min | AUC [1, 8]: 648 ng·h/mL | AUC Extrap [1, 8]: 653 ng·h/mL | Tmax [1, 8]: 4.98 min | T½ [1, 8]: 284 min | IC50 [2, 9]: 83 nM | IC50 [2, 10]: 7 nM | IC50 [3]: > 30000 nM | MAGL kinact/KI [4]: 13406 1/s per M | melting point: 132 °C | % AUC Extrap [5, 11]: 3.46% | AUC [5, 11]: 158 ng·h/mL | AUC Extrap [5, 11]: 162 ng·h/mL | Rate Constant [5, 11]: 2.22 h⁻¹ | Tmax [5, 11]: 3.48 min | T½ [5, 11]: 20.5 min | % AUC Extrap [5, 12]: 6.04% | AUC [5, 12]: 102 ng·h/mL | AUC Extrap [5, 12]: 109 ng·h/mL | Rate Constant [5, 12]: 2.86 h⁻¹ | Tmax [5, 12]: 4.98 min | T½ [5, 12]: 14.5 min | % AUC Extrap [5, 13]: 0.880% | AUC [5, 13]: 213 ng·h/mL | AUC Extrap [5, 13]: 215 ng·h/mL | Rate Constant [5, 13]: 1.57 h⁻¹ | Tmax [5, 13]: 1.98 min | T½ [5, 13]: 26.5 min | Cmax ([5]; plasma, 2 mg/kg, Example 6 (parent) in plasma, Wistar Hann rats, IV Example 32 at 2 mg/kg, Mean): 309 ng/mL | Cmax ([5]; plasma, 2 mg/kg, Example 6 (parent) in plasma, Wistar Hann rats, IV Example 32 at 2 mg/kg, Rat 03): 234 ng/mL | Cmax ([5]; plasma, 2 mg/kg, Example 6 (parent) in plasma, Wistar Hann rats, IV Example 32 at 2 mg/kg, Rat 04): 384 ng/mL
SMILES: O=C(O[C@H](CO)C(F)(F)F)N1CCC2(CC1)CN(S(=O)(=O)c1ccc(F)cc1)CCO2 [Example 6, (2R)-1,1,1-Trifluoro-3-hydroxypropan-2-yl 4-[(4-fluorophenyl)sulfonyl]-1-oxa-4,9-diazaspiro[5.5]undecane-9-carboxylate]

SMILES: O=C(O[C@H](CO)C(F)(F)F)N1CCC2(CC1)C[C@@H](NS(=O)(=O)c1ccccc1)CO2 [Example 9, (2R)-1,1,1-Trifluoro-3-hydroxypropan-2-yl (3R)-3-[(phenylsulfonyl)amino]-1-oxa-8-azaspiro[4.5]decane-8-carboxylate]
AUC [1, 14]: 1350 ng·h/mL | AUC Extrap [1, 14]: 1550 ng·h/mL | Tmax [1, 14]: 15 min | T½ [1, 14]: 642 min | AUC [1, 15]: 1460 ng·h/mL | AUC Extrap [1, 15]: 1560 ng·h/mL | Tmax [1, 15]: 4.98 min | T½ [1, 15]: 482 min | AUC [1, 16]: 1410 ng·h/mL | AUC Extrap [1, 16]: 1560 ng·h/mL | Tmax [1, 16]: 10.2 min | T½ [1, 16]: 562 min | IC50 [2, 9]: 40 nM | IC50 [2, 10]: 4 nM | IC50 [3]: > 30000 nM | MAGL kinact/KI [4]: 8588 1/s per M | % AUC Extrap [5, 17]: 2.46% | AUC [5, 17]: 146 ng·h/mL | AUC Extrap [5, 17]: 150 ng·h/mL | Rate Constant [5, 17]: 0.500 h⁻¹ | Tmax [5, 17]: 4.98 min | T½ [5, 17]: 84.6 min | % AUC Extrap [5, 18]: 2.08% | AUC [5, 18]: 118 ng·h/mL | AUC Extrap [5, 18]: 121 ng·h/mL | Rate Constant [5, 18]: 0.560 h⁻¹ | Tmax [5, 18]: 4.98 min | T½ [5, 18]: 74.4 min | % AUC Extrap [5, 19]: 2.83% | AUC [5, 19]: 173 ng·h/mL | AUC Extrap [5, 19]: 178 ng·h/mL | Rate Constant [5, 19]: 0.440 h⁻¹ | Tmax [5, 19]: 4.98 min | T½ [5, 19]: 94.2 min | Cmax ([5]; in vivo, 1.48 mg/kg, Example 9 (parent) in plasma, Wistar Hann rats, IV Example 31 at 1.48 mg/kg, Mean): 316 ng/mL | Cmax ([5]; in vivo, 1.48 mg/kg, Example 9 (parent) in plasma, Wistar Hann rats, IV Example 31 at 1.48 mg/kg, Rat 01): 253 ng/mL | Cmax ([5]; in vivo, 1.48 mg/kg, Example 9 (parent) in plasma, Wistar Hann rats, IV Example 31 at 1.48 mg/kg, Rat 02): 378 ng/mL

SMILES: O=C(O[C@H](COP(=O)([O-])[O-])C(F)(F)F)N1CCC2(CC1)CN(S(=O)(=O)c1ccc(F)cc1)CCO2.[Na+].[Na+] [Example 32, (2R)-3,3,3-Trifluoro-2-[({4-[(4-fluorophenyl)sulfonyl]-1-oxa-4,9-diazaspiro[5.5]undec-9-yl}carbonyl)oxy]propyl phosphate, disodium salt]
% AUC Extrap [1, 20]: 0.0443% | AUC Extrap [1, 20]: 146 ng·h/mL | CL [1, 20]: 114 mL/min/kg | Co [1, 20]: 1220 ng/mL | Rate Constant [1, 20]: 5.08 h⁻¹ | T½ [1, 20]: 8.16 min | Vdss [1, 20]: 0.751 L/kg | AUC ([1]; Example 32 in plasma, IV Example 32 at 1 mg/kg, Dog 03, AUC interval 0-1 Hours): 146 ng·h/mL | % AUC Extrap [1, 21]: 0.150% | AUC Extrap [1, 21]: 229 ng·h/mL | CL [1, 21]: 72.8 mL/min/kg | Co [1, 21]: 2370 ng/mL | Rate Constant [1, 21]: 5.06 h⁻¹ | T½ [1, 21]: 8.22 min | Vdss [1, 21]: 0.357 L/kg | AUC ([1]; Example 32 in plasma, IV Example 32 at 1 mg/kg, Dog 04, AUC interval 0-1 Hours): 229 ng·h/mL | % AUC Extrap [1, 22]: 0.0972% | AUC [1, 22]: 188 ng·h/mL | AUC Extrap [1, 22]: 188 ng·h/mL | CL [1, 22]: 93.4 mL/min/kg | Co [1, 22]: 1800 ng/mL | Rate Constant [1, 22]: 5.07 h⁻¹ | T½ [1, 22]: 8.22 min | Vdss [1, 22]: 0.554 L/kg | IC50 [2, 9]: > 3000 nM | IC50 [2, 10]: > 3000 nM | % AUC Extrap [5, 23]: 0.532% | AUC [5, 23]: 159 ng·h/mL | AUC Extrap [5, 23]: 160 ng·h/mL | CL [5, 23]: 215 mL/min/kg | Co [5, 23]: 3760 ng/mL | Rate Constant [5, 23]: 5.94 h⁻¹ | T½ [5, 23]: 7.32 min | Vdss [5, 23]: 0.597 L/kg | % AUC Extrap [5, 24]: 0.232% | AUC Extrap [5, 24]: 185 ng·h/mL | CL [5, 24]: 180 mL/min/kg | Co [5, 24]: 4480 ng/mL | Rate Constant [5, 24]: 4.73 h⁻¹ | T½ [5, 24]: 8.82 min | Vdss [5, 24]: 0.515 L/kg | AUC ([5]; Example 32 in plasma, rats, IV Example 32 (2 mg/kg active), Rat 03, AUC interval 0-1 Hours): 185 ng·h/mL | % AUC Extrap [5, 25]: 0.832% | AUC Extrap [5, 25]: 134 ng·h/mL | CL [5, 25]: 249 mL/min/kg | Co [5, 25]: 3040 ng/mL | Rate Constant [5, 25]: 7.14 h⁻¹ | T½ [5, 25]: 5.83 min | Vdss [5, 25]: 0.679 L/kg | AUC ([5]; Example 32 in plasma, rats, IV Example 32 (2 mg/kg active), Rat 04, AUC interval 0-0.5 Hours): 133 ng·h/mL
